Test results from patent publication US11173151B2, “Substituted triazole derivatives and uses thereof” (BAYER AKTIENGESELLSCHAFT, priority 2017, dated 2021).
Read-outs that look alike come from different tables or passages of the source.

Legend:
human V2 receptor = target: T1, human V2 receptor (Homo sapiens, UniProt P30518); assay: Cellular in vitro assay for determining vasopressin receptor activity, V2 receptor cell line (CHO, CRE-luciferase); type: cell-based; conditions: CHO cell line transfected with human V2 receptor, [Arg8]-vasopressin at EC50 concentration, read-out: IC50 hV2
T1 construct: expressed in transfected cells; host or cells: CHO K1 (ATCC) expressing firefly luciferase under a CRE-responsive promoter
T1 sequence (P30518 whole entry): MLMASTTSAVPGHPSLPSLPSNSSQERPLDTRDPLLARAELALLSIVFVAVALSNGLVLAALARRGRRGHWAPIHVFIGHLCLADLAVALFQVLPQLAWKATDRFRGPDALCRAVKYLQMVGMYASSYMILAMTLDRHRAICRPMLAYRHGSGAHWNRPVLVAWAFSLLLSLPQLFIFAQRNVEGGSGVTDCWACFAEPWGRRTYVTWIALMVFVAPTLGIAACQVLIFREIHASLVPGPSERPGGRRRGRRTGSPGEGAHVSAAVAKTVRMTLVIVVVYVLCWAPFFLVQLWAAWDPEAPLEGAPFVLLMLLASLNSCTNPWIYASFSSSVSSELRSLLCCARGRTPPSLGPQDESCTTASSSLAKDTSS

human V1a receptor = target: T2, human V1a receptor (Homo sapiens, UniProt P37288); assay: Cellular in vitro assay for determining vasopressin receptor activity, V1a receptor cell line (CHO, aequorin luminescence); type: cell-based; conditions: for IC50: CHO cell line transfected with human V1a receptor, [Arg]-vasopressin at EC50 concentration, read-out: IC50 hV1a; for ratio IC50 hV2/hV1a: selectivity ratio IC50 hV2 / IC50 hV1a
T2 construct: expressed in transfected cells; host or cells: CHO K1 (ATCC), also stably transfected with a modified aequorin
T2 sequence (P37288 whole entry): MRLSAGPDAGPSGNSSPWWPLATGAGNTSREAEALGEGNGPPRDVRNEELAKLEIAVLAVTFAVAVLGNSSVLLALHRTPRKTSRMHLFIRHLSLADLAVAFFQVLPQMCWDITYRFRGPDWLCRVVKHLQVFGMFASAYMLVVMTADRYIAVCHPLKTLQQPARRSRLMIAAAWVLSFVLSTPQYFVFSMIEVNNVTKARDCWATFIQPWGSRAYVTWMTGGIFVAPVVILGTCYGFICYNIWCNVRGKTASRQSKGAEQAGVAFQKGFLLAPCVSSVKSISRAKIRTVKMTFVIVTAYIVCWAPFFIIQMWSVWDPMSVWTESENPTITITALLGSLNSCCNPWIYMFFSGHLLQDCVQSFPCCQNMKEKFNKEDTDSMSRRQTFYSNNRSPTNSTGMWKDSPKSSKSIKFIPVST
Outline: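 Antagonism is measured in stable CHO K1 transfectants coexpressing the Gαq-coupled receptor and a calcium-sensitive aequorin photoprotein. Agonist challenge uses [Arg]-vasopressin at EC50 after a 10-minute compound exposure; IC50 values come from the luminescence signal.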

Row | IC50 (human V2 receptor) | IC50 (human V1a receptor) | ratio IC50 hV2/hV1a (human V1a receptor) | IC50 (human V2 receptor; 3 hours) | Compound
1 | 23.5 µM | 5.15 µM | 4.6 | – | O=C1CN(c2nc(Cn3nc(-c4ccc(Cl)cc4)n(C[C@H](O)C(F)(F)F)c3=O)nn2-c2cccnc2C(=O)N[C@@H]2C[C@@H]2F)CCN1 (racemic) [Example 508, 3-[3-({3-(4-Chlorophenyl)-5-oxo-4-[(2S)-3,3,3-trifluoro-2-hydroxypropyl]-4,5-dihydro-1H-1,2,4-triazol-1-yl}methyl)-5-(3-oxopiperazin-1-yl)-1H-1,2,4-triazol-1-yl]-N-[2-fluorocyclopropyl]pyridine-2-carboxamide]
2 | 1.84 µM | 0.49 µM | 3.8 | – | O=C1CN(C(=O)c2nc(Cn3nc(-c4ccc(Cl)cc4)n(C[C@H](O)C(F)(F)F)c3=O)nn2-c2cnccc2C(=O)N[C@H]2C[C@H]2F)CCN1 (racemic) [Example 517, 3-{3-({3-(4-Chlorophenyl)-5-oxo-4-[(2S)-3,3,3-trifluoro-2-hydroxypropyl]-4,5-dihydro-1H-1,2,4-triazol-1-yl}methyl)-5-[(3-oxopiperazin-1-yl)carbonyl]-1H-1,2,4-triazol-1-yl}-N-[2-fluorocyclopropyl]pyridine-4-carboxamide]
3 | 1.1 µM | 0.365 µM | 3.0 | – | O=C(N[C@H]1C[C@H]1F)c1ccncc1-n1nc(Cn2nc(-c3ccc(Cl)cc3)n(C[C@H](O)C(F)(F)F)c2=O)nc1C(=O)N1CCS(=O)(=O)CC1 (racemic) [Example 523, 3-{3-({3-(4-Chlorophenyl)-5-oxo-4-[(2S)-3,3,3-trifluoro-2-hydroxypropyl]-4,5-dihydro-1H-1,2,4-triazol-1-yl}methyl)-5-[(1,1-dioxidothiomorpholin-4-yl)carbonyl]-1H-1,2,4-triazol-1-yl}-N-[2-fluorocyclopropyl]pyridine-4-carboxamide]
4 | 1.53 µM | 1.08 µM | 1.4 | – | O=C1CN(C(=O)c2nc(Cn3nc(-c4ccc(Cl)cc4)n(C[C@H](O)C(F)(F)F)c3=O)nn2-c2ncccc2C(=O)N[C@H]2C[C@H]2F)CCN1 (racemic) [Example 527, 2-{3-({3-(4-chlorophenyl)-5-oxo-4-[(2S)-3,3,3-trifluoro-2-hydroxypropyl]-4,5-dihydro-1H-1,2,4-triazol-1-yl}methyl)-5-[(3-oxopiperazin-1-yl)carbonyl]-1H-1,2,4-triazol-1-yl}-N-[2-fluorocyclopropyl]pyridine-3-carboxamide]
5 | 3.18 µM | 0.146 µM | 21.8 | – | O=C(N[C@H]1C[C@H]1F)c1cccnc1-n1nc(Cn2nc(-c3ccc(Cl)cc3)n(C[C@H](O)C(F)(F)F)c2=O)nc1C(=O)N1CCS(=O)(=O)CC1 (racemic) [Example 533, 2-{3-({3-(4-Chlorophenyl)-5-oxo-4-[(2S)-3,3,3-trifluoro-2-hydroxypropyl]-4,5-dihydro-1H-1,2,4-triazol-1-yl}methyl)-5-[(1,1-dioxidothiomorpholin-4-yl)carbonyl]-1H-1,2,4-triazol-1-yl}-N-[2-fluorocyclopropyl]pyridine-3-carboxamide]
6 | 4.62 µM | 0.0825 µM | 56.0 | – | CC(C)(N)CNC(=O)c1nc(Cn2nc(-c3ccc(Cl)cc3)n(C[C@H](O)C(F)(F)F)c2=O)nn1-c1cnccc1C(=O)N[C@H]1C[C@H]1F (racemic) [Example 535, 3-{5-[(2-amino-2-methylpropyl)carbamoyl]-3-({3-(4-chlorophenyl)-5-oxo-4-[(2S)-3,3,3-trifluoro-2-hydroxypropyl]-4,5-dihydro-1H-1,2,4-triazol-1-yl}methyl)-1H-1,2,4-triazol-1-yl}-N-[2-fluorocyclopropyl]pyridine-4-carboxamide]
7 | – | 0.0105 µM | 52.7 | 0.553 µM | O=C(Nc1ccncc1-n1cnc(Cn2nc(-c3ccc(Cl)cc3)n(C[C@H](O)C(F)(F)F)c2=O)n1)[C@@H]1C[C@@H]1F (single isomer, unassigned) [Example 35]
